Legend:
Ornithine Decarboxylase [1] = settings: prior-art epoxides; ODC induction in mouse epidermis by tumor-promoting phorbol esters; cited from earlier work
Ornithine Decarboxylase [2] = experiment: Inhibition of induction of ornithine decarboxylase (ODC assay) by 12-O-tetradecanoylphorbol-13-acetate in mouse skin; format: in vivo; settings: topical, 1 hour before TPA (17 nmol), CD-1 mice
Experimental: (§1) The ODC assay measures a compound's effect on the prevention of the induction of ODC. The tracheal organ culture assay measures a compound's ability to reverse keratinization. For comparison purposes retinoic acid was also tested by these assays.
The ODC assay is carried out as follows. Female Charles River CD-1 mice from Charles River Breeding Laboratories, Wilmington, Mass., are used (age 7 to 9 weeks). The dorsal hair of the mice is shaved 1 to 2 days before testing, and only mice showing no hair regrowth are used. […] The mice are killed by cervical dislocation five hours after TPA treatment. Determinations are done in triplicate.
The epidermis is obtained from the sacrificed animals. To obtain sufficient material, the dorsal skins from 2 to 3 mice in each treatment group are pooled. The depilatory agent Nudit® (Helena Rubinstein, New York) is applied to the shaved area of the skin; after 5 minutes, it is washed off thoroughly with cold tap water. Then the skin is excised and plunged immediately into ice-cold water; it is then placed in a 55° C. water bath for 30 seconds and reimmersed in ice-cold water for at least another 30 seconds.
The supernatant fraction remaining after centrifugation of the homogenate at 10,000×g for 30 seconds at 0° C. is used for the enzyme assay. Enzyme activity is determined using the microassay for ODC as described by Verma and Boutwell to measure the release of ^14 CO2 from DL-[1-^14 C]-ornithine (58 mCi/mmol) after incubation with the 10,000×g supernatant. The incubations are carried out by decanting, with a Pasteur pipette, 100 μL of the supernatant containing 100 to 120 μg of protein into two or three 15-mL Corex tubes in a shaking water bath at 37° C.

[3] = tested on: Hamster Tracheal Organ Culture; experiment: Reversal of keratinization in hamster tracheal organ culture; format: cell-based
Experimental: as §1
The tracheal organ culture assay is carried out as follows. Tracheas are taken from hamsters that are in very early stages of vitamin A deficiency and placed in organ culture. At the time of culture, the animals are still gaining weight; the tracheal epithelium is generally low columnar or cuboidal, with only occasional patches of squamous metaplasia. […] All tracheas are grown in medium containing no retinoid for the first 3 days. […] Culture medium is changed three times a week, and all of the remaining tracheas are harvested at the end of 10 days in culture. Tracheas are fixed in 10% buffered formalin and embedded in paraffin.

Compound: CC(/C=C/C12OC1(C)CCCC2(C)C)=C\C=C\C(C)=C\C(=O)O (stereo not drawn) [5,6-epoxy-5,6-dihydroretinoic acid]
- biological activity in the ornithine decarboxylase (ODC) assay (Ornithine Decarboxylase [1]): exhibited biological activity

Compound: CCOC(=O)c1ccc(/C=C(\C)C=CC23OC2(C)CCCC3(C)C)cc1 (stereo not drawn) [(E)-1-(4-carbethoxy)-2-methyl-4-(1,2-epoxy-2,6,6,-trimethylcyclohex-1-yl)-1,3-butadiene]
- biological activity in the ornithine decarboxylase (ODC) assay (Ornithine Decarboxylase [1]): exhibited biological activity

Compound: CCOC(=O)c1ccc(/C=C(C)/C=C/C23CC2(C)CCCC3(C)C)cc1 (stereo not drawn) [(E)-1-(4-carbethoxyphenyl)-2-methyl-4-(2,2,6-trimethylbicyclo[4.1.0]hept-1-yl)-1,3-butadiene]
- % Inhibition of Control (inhibition of induction of ornithine decarboxylase by TPA in mouse skin) (Ornithine Decarboxylase [2]; dose 17 nmol): 80%
- Active Cultures (%) (reversal of keratinization) ([3]; conc 10^-8 M): 100%
- Active/Total Cultures (reversal of keratinization) ([3]; conc 10^-8 M): 7/7
- Active Cultures (%) (reversal of keratinization) ([3]; conc 10^-9 M): 77%
- Active/Total Cultures (reversal of keratinization) ([3]; conc 10^-9 M): 10/13
- Active Cultures (%) (reversal of keratinization) ([3]; conc 10^-10 M): 29%
- Active/Total Cultures (reversal of keratinization) ([3]; conc 10^-10 M): 4/14
- Active Cultures (%) (reversal of keratinization) ([3]; conc 10^-11 M): 29%
- Active/Total Cultures (reversal of keratinization) ([3]; conc 10^-11 M): 2/7

Compound: CC1=C(/C=C/C(C)=C/C=C/C(C)=C/C(=O)O)C(C)(C)CCC1 [(E)-retinoic acid, reference compound]
- % Inhibition of Control (inhibition of induction of ornithine decarboxylase by TPA in mouse skin) (Ornithine Decarboxylase [2]; dose 1.7 nmol): 87-91%
- Active Cultures (%) (reversal of keratinization) ([3]; conc 10^-8 M): 100%
- Active/Total Cultures (reversal of keratinization) ([3]; conc 10^-8 M): 236/236
- Active Cultures (%) (reversal of keratinization) ([3]; conc 10^-9 M): 88%
- Active/Total Cultures (reversal of keratinization) ([3]; conc 10^-9 M): 419/474
- Active Cultures (%) (reversal of keratinization) ([3]; conc 10^-10 M): 52%
- Active/Total Cultures (reversal of keratinization) ([3]; conc 10^-10 M): 134/256

Compound: CCOC(=O)/C=C(C)/C=C/C=C(C)/C=C/C12CC1(C)CCCC2(C)C (stereo not drawn) [ethyl (E)-5,6-methano-5,6-dihydroretinoate]
- % Inhibition of Control (inhibition of induction of ornithine decarboxylase by TPA in mouse skin) (Ornithine Decarboxylase [2]; dose 17 nmol): 70%
- Active Cultures (%) (reversal of keratinization) ([3]; conc 10^-8 M): 100%
- Active/Total Cultures (reversal of keratinization) ([3]; conc 10^-8 M): 7/7
- Active Cultures (%) (reversal of keratinization) ([3]; conc 10^-9 M): 79%
- Active/Total Cultures (reversal of keratinization) ([3]; conc 10^-9 M): 11/14
- Active Cultures (%) (reversal of keratinization) ([3]; conc 10^-10 M): 50%
- Active/Total Cultures (reversal of keratinization) ([3]; conc 10^-10 M): 7/14
- Active Cultures (%) (reversal of keratinization) ([3]; conc 10^-11 M): 29%
- Active/Total Cultures (reversal of keratinization) ([3]; conc 10^-11 M): 2/7

Source: patent publication US4439614A, “5,6-Methano-5,6-dihydroretinoids” (SRI International, priority 1982, dated 1984)
